The test system of data set [1] is multi-drug-resistant breast cancer cell line MDA-MB-231. Kind of data set: Cell growth assay on MDA-MB-231 cells. The data set is classed as cell-based. The conditions noted are these: MDA-MB-231, breast carcinoma. The protocol:
(§1) Compositions were tested on CHOP-resistant G3 NHL cells that had been cultivated in RPMI medium for five days. Prior to assay, the cells were counted by haemocytometer and cell concentration standardized to 625,000 cells/ml. Test drugs were solubilized in 100% DMSO and then diluted to final assay concentration with 0.1M phosphate buffered saline (PBS) and a final DMSO concentration of 0.5%. Cells were added to assay plates containing the test drugs (rifabutin+148 ng/ml, 74 ng/ml, 37 ng/ml, or 0 ng/ml doxorubicin) and allowed to incubate for 96 hours at 37° C. and 5% CO2. The metabolic dye rezasurin was added to the wells of the assay plate at a final concentration of 20 μg/ml and the plates were incubated for an additional 24 hours. The plates were then read in a BMG Polarstar plate reader at wavelength (573-605) and the data plotted as OD versus increasing dilutions (i.e. decreasing total amounts) of rifabutin derivative concentration.
(§2) In these experiments, the following cell lines were used: CHOP-resistant NHL cell line G3, CHOP-sensitive NHL cell line CRL2631, the multi-drug resistant sarcoma cell line MES-SA-Dx5; multi-drug-resistant breast cancer cell line MDA-MB-231, multi-drug resistant ovarian carcinoma cell line SK-OV3, multi-drug resistant ovarian cancer cell line NCI/ADR-RES, drug-sensitive ovarian cancer cell line OVCAR-5, and multi-drug resistant ovarian cancer cell line OVCAR-3.
(§3) Additional cell lines used include: ovarian cancer OVCAR-8, T lymphoblastoid leukemia MOLT-4, dexamethasone-resistant multiple myeloma MM.1R, myeloid leukemia cells HL-60, osteosarcoma cells U-2 OS, and myeloma RPMI 8226.

Data set [2] has as its system multi-drug resistant sarcoma cell line MES-SA-Dx5. Kind of data set: Cell growth assay on MES-SA-Dx5 cells. It counts as cell-based. The conditions noted are these: MES-SA-Dx5, uterus sarcoma. As to the method:
as §1, §2, §3

For data set [3], the system named is human ovarian cancer cell line SK-OV-3. Kind of data set: SK-OV-3 xenograft efficacy study in SCID mice. It counts as in vivo. The protocol:
In a fifth efficacy study, we generated xenografts of the human ovarian cancer cell line SK-OV-3, a cell line considered doxorubicin-resistant, by bilateral subcutaneous (s.c.) injection of 1×10^7 tumor cells to establish localized tumors in 6-8 week old female SCID mice. Using rifabutin co-administered with DOX, in vivo efficacy was assessed. […] Cycles of Dox or Dox+rifabutin were given once a week for 4 cycles. This cyclical dosing scheme of mouse models has precedent in the literature and is intended to mimic the cycles of DOXIL® (Centocor Ortho Biotech Products, LP, Raritan, N.J.) given in the clinic. Rifabutin was administered on the day of each DOX treatment and by gavage. Mouse body weight and tumor size were monitored.

Data set [4] concerns CHOP-sensitive CRL2631 cells. Kind of data set: Prevention of the emergence of CHOP resistance. The data set is classed as cell-based, human. The following applies: one week CHOP+rifabutin, half (0.5×) and full (1×) doses of CHOP. The protocol:
The ability of rifabutin to prevent the emergence of CHOP-resistance was determined by treating CHOP-sensitive CRL2631 cells with either CHOP alone or CHOP+rifabutin for one week. Following treatment, the cells were grown in the absence of CHOP, then their sensitivity to CHOP was assayed by retreatment with CHOP, followed by counting of viable cells. […] A 1×CHOP dose in this experiment corresponds to final concentrations of the following components: 0.83 μM 4-hydroxycyclophosphamide [4HC, a pre-activated form of cyclophosphamide], 0.057 μM doxorubicin, 0.01 μM vincristine, and 0.186 μM prednisone.

The next data set addresses ABCB1 pumps (Homo sapiens, UniProt P08183). The following applies: NCI/ADR-RES and G3 cells.
Data set [5] relates to G3 CHOP-resistant NHL cells. As to the method:
In a first efficacy study, 6-8 week old female SCID mice (7 mice per treatment arm) were injected subcutaneously on both flanks with 1×10^7 G3 CHOP-resistant NHL cells. Once palpable tumors (about […] size) appeared, therapies (CHOP or CHOP+rifabutin) were started. CHOP was administered at the maximum tolerated dose (cyclophosphamide, 40 mg/kg i.v.; doxorubicin, 3.3 mg/kg i.v.; vincristine, 0.5 mg/kg i.v.; and prednisone, 0.2 mg/kg orally daily for 5 d) weekly for 3 weeks. Rifabutin in an amount of 100 mg/kg was administered on the day of each CHOP treatment and 24-hours later by gavage. Mouse body weight and tumor size were monitored every two days and tumor size measured by caliper. The tumor volume formula (L*W*W)/2 was used to calculate tumor mass.
A second efficacy study was conducted where mice were treated before the appearance of palpable tumors. In that experiment, one week after transplantation of CHOP-resistant G3 cells, one group (7 mice) was treated with CHOP-only and a second group (8 mice) was treated with CHOP+rifabutin.
A third study was conducted in which mice injected with CHOP-resistant G3 cells received reduced dosages of CHOP in combination with 33 mg/kg rifabutin. CHOP+rifabutin was administered weekly beginning one week post-inoculation. Control mice were given no CHOP or rifabutin.
SCID mice were injected with CHOP-resistant G3 cells in the same manner as the first efficacy study above. Treatments began 2 weeks post-inoculation and were administered twice weekly.

Sequence of ABCB1 pumps (P08183 whole entry): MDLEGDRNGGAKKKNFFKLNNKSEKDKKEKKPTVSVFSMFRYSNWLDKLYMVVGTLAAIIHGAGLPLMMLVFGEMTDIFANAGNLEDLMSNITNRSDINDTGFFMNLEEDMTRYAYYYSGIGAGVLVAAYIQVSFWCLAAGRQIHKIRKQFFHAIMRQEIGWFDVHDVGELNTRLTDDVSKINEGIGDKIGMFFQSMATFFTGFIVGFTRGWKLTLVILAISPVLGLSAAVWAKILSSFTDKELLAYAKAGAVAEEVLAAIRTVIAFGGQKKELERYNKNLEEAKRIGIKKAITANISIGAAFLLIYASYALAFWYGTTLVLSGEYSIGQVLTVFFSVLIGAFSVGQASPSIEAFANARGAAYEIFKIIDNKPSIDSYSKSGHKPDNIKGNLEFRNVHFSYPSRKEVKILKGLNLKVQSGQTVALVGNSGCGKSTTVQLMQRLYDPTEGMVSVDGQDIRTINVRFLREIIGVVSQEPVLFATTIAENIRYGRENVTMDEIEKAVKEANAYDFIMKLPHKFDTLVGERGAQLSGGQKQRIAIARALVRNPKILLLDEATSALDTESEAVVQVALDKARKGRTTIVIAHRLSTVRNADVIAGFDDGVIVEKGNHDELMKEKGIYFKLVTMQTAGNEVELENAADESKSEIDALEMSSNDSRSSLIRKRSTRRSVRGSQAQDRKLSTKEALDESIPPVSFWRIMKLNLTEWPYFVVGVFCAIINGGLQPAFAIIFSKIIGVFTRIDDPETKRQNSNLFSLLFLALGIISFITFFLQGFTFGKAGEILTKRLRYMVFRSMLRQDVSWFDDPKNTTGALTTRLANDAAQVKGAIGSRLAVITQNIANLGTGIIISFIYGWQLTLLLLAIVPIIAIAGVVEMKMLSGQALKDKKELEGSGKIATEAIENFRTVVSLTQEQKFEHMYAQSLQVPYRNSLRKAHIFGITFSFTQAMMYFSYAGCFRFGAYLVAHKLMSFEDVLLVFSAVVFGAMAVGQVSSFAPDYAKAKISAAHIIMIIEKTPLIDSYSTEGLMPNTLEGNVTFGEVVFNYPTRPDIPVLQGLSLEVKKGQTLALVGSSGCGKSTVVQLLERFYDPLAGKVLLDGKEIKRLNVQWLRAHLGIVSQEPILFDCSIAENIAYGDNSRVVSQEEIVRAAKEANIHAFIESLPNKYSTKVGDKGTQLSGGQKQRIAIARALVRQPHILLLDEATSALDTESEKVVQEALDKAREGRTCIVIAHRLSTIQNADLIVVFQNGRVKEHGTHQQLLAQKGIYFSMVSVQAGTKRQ

Take `CO[C@H]1/C=C/O[C@@]2(C)Oc3c(C)c(O)c4c(c3C2=O)C2=NC3(CCN(CC(C)C)CC3)NC2=C(NC(=O)/C(C)=C\C=C\[C@H](C)[C@H](O)[C@@H](C)[C@@H](O)[C@@H](C)[C@H](OC(C)=O)[C@@H]1C)C4=O` [Rifabutin, rifabutin]: the “Magnitude of potentiation in combination with doxorubicin” value is reported as “+++ (potentiation greater than 5 fold increase)” in data set [1] and “++ (potentiation between 2.1 to 5 fold increase)” in data set [2]. In addition, in data set [3] (after 19 days treatment, DOX 3.3 mg/kg i.v. + rifabutin 25 mg/kg oral weekly), the average tumor volume is on record as 348 mm^3. Also, the “reduction in tumor size versus DOX-only” value in data set [3] (after 19 days, DOX 3.3 mg/kg i.v. + rifabutin 25 mg/kg oral) is listed as 40%. In addition, the “emergence of CHOP-resistant cells” value in data set [4] is reported as “significantly repress the emergence of CHOP-resistant cells”. Besides, at ABCB1 pumps, the “inhibition of efflux pumps” value was “clear inhibition of efflux pumps”. Besides, in data set [5] (first study, rifabutin 100 mg/kg by gavage with CHOP at maximum tolerated dose weekly for 3 weeks, versus CHOP only), the “overall tumor burden per mouse” value is listed as “much lower”. Besides, in data set [5] (mouse, in vivo), the “toxicity of the rifabutin dosage in the mice” value is listed as “little or not toxicity”. Besides, the “injection sites that developed tumors” value in data set [5] (second study, treated before palpable tumors, CHOP+rifabutin group, 6 of 16 sites) stood at 37.5%. The tumor load result in data set [5] (third study, reduced dosages of CHOP with 33 mg/kg rifabutin weekly, versus untreated mice) is on record as “significantly less”.

The values are drawn from patent publication US20150017673A1, “COMPOSITIONS AND METHODS FOR DRUG-SENSITIZATION OR INHIBITION OF A CANCER CELL” (priority 2012, published 2015).
